Results: US8314098B2, “Pyrazolo-pyrimidine compounds” (Ajinomoto Co., Inc., priority 2008, dated 2012)

Assays:
[1] = test system: IL-12p70 (the complex of IL-12p35 and p40); experiment: IL-12p70 production inhibition in macrophages derived from mouse abdomen (IFN-γ/SAC stimulation, ELISA); format: cell-based; details: Macrophage; mouse (Balb/c) abdominal macrophages, 100 ng/mL mouse IFN-γ + 0.05% SAC, overnight; TFA salts tested where prepared as such; read-out: IL-12p70-Inhibitory Activity IC50
Experimental: (§1) One milliliter each of a 3% (w/v) thioglycolate solution was intraperitoneally administered to mice (female Balb/c mice), the abdominal cells of each mouse were recovered after 5 or 6 days from the administration of the thioglycolate solution and the adhesive cells were collected and used in the exaluation procedures. To a culture medium containing such adhesive cells, there were added 100 ng/mL of mouse interferon-γ and a 0.05% (v/v) liquid containing killed cells derived from Staphylococcus aureus Cowan I strain (SAC) and a candidate compound and then the mixture was cultivated overnight. After the completion of the cultivation, the survival ratios were determined, there were quantitatively determined the quantities of IL-12p70 (the complex of IL-12p35 and p40) and IL-12p40 or TNF-α according to the ELISA assays while making use of the recovered supernatant of the culture medium and the 50% production-inhibitory concentration (IC50) was calculated for each case (see Table 1 and Tables 1-9 for IL-12p70 and TNF-α and Tables 1 to 10 for IL-12p40).

[2] = test system: TNF-α; experiment: TNF-α production inhibition in macrophages derived from mouse abdomen (IFN-γ/SAC stimulation, ELISA); format: cell-based; details: Macrophage; mouse (Balb/c) abdominal macrophages, 100 ng/mL mouse IFN-γ + 0.05% SAC, overnight; TFA salts tested where prepared as such; read-out: TNF-α-Inhibitory Activity IC50
Experimental: as §1

SMILES | IC50 [1] | IC50 [2]
Cc1cccc(/C=N/Nc2cc(N3CCOCC3)n3nc(-c4ccccc4C)cc3n2)c1 [Compound 14, N-(3-methyl-benzylidene)-N′-{2-(2-methyl-phenyl)-7-morpholin-4-yl-pyrazolo[1,5-a]pyrimidin-5-yl}-hydrazine] | 38 nM | > 10000 nM
COc1ccc(C)cc1/C=N/Nc1cc(N2CCOCC2)n2nc(-c3ccccc3)cc2n1 [Compound 40, N-(2-methoxy-5-methyl-benzylidene)-N′-(7-morpholin-4-yl-2-phenyl-pyrazolo[1,5-a]pyrimidin-5-yl)-hydrazine] | 64 nM | > 10000 nM
Cc1ccc(-c2nn3c(N4CCOCC4)cc(N/N=C/c4cccc(C)c4)nc3c2Br)cc1 [Compound 5, N-{3-bromo-2-(4-methylphenyl)-7-morpholin-4-yl-pyrazolo-[1,5-a]pyrimidin-5-yl}-N′-(3-methyl-benzylidene)-hydrazine] | 124 nM | > 10000 nM
C(=N\Nc1cc(N2CCOCC2)n2nc(-c3ccccc3)cc2n1)/c1cccnc1 [Compound 8, N-(7-morpholin-4-yl-2-phenyl-pyrazolo[1,5-a]pyrimidin-5-yl)-N′-pyridin-3-yl-methylidene-hydrazine] | 407 nM | > 10000 nM
Cc1cccc(/C=N/Nc2cc(N3CCOCC3)n3ncc(-c4ccccc4)c3n2)c1 [Compound 6, N-(3-methyl-benzylidene)-N′-(7-morpholin-4-yl-3-phenyl-pyrazolo[1,5-a]pyrimidin-5-yl)-hydrazine] | 642 nM | > 10000 nM
Cc1cccc(/C=N/Nc2cc(N3CCOCC3)n3nc(-c4ccc(Cl)cc4)cc3n2)c1 [Compound 13, N-{2-(4-chlorophenyl)-7-morpholin-4-yl-pyrazolo[1,5-a]-pyrimidin-5-yl}-N′-(3-methyl-benzylidene)-hydrazine] | 34 nM | > 10000 nM
Cc1ccc(-c2cc3nc(N/N=C/c4cccc(C)c4)cc(N4CCOCC4)n3n2)cc1 [Compound 3, N-(3-methyl-benzylidene)-N′-{2-(4-methylphenyl)-7-morpholin-4-yl-pyrazolo[1,5-a]pyrimidin-5-yl}-hydrazine] | 35 nM | > 10000 nM
COc1cccc(/C=N/Nc2cc(N3CCOCC3)n3nc(-c4ccccc4)cc3n2)c1 [Compound 29, N-(3-methoxy-benzylidene)-N′-(7-morpholin-4-yl-2-phenyl-pyrazolo[1,5-a]pyrimidin-5-yl)-hydrazine] | 40 nM | > 10000 nM
C(=N\Nc1cc(N2CCOCC2)n2nc(-c3ccccc3)cc2n1)/c1ccccc1 [Compound 7, N-benzylidene-N′-(7-morpholin-4-yl-2-phenyl-pyrazolo-[1,5-a]pyrimidin-5-yl)-hydrazine] | 113 nM | > 10000 nM
CCOC(=O)c1cc2nc(N/N=C/c3cccc(C)c3)cc(N3CCOCC3)n2n1 [Compound 81, N-(2-ethoxycarbonyl-7-morpholin-4-yl-pyrazolo[1,5-a]-pyrimidin-5-yl)-N′-(3-methyl-benzylidene)-hydrazine] | 55 nM | > 10000 nM
Cc1cccc(/C=N/Nc2cc(N3CCOCC3)n3nc(C)cc3n2)c1 [Compound 79, N-(3-methyl-benzylidene)-N′-(2-methyl-7-morpholin-4-yl-pyrazolo[1,5-a]pyrimidin-5-yl)-hydrazine] | 220 nM | > 10000 nM
Cc1cccc(CNNc2cc(N3CCOCC3)n3nc(-c4ccccc4)cc3n2)c1 [Compound 34, N-(3-methyl-benzyl)-N′-(7-morpholin-4-yl-2-phenyl-pyrazolo[1,5-a]pyrimidin-5-yl)-hydrazine] | 24 nM | > 10000 nM

The next compounds have a lower IC50 [1] than those just listed; values first:

IC50 [1] | IC50 [2] | SMILES
23 nM | > 10000 nM | Cc1ccc(-c2cc3nc(N/N=C/c4c[nH]c5ccccc45)cc(N4CCOCC4)n3n2)cc1 [Compound 4, N-(1H-indol-3-yl-methylidene)-N′-{2-(4-methylphenyl)-7-morpholin-4-yl-pyrazolo[1,5-a]pyrimidin-5-yl}-hydrazine]
19 nM | > 10000 nM | Cc1cccc(/C=N/Nc2cc(N3CCOCC3)n3nc(-c4ccccc4)cc3n2)c1 [Compound 1, N-(3-methyl-benzylidene)-N′-(2-phenyl-7-morpholin-4-yl-pyrazolo[1,5-a]pyrimidin-5-yl)-hydrazine]
18 nM | > 10000 nM | CCCCC(=O)N1CCN(c2ccc(-c3cc4nc(N/N=C/c5cccc(C)c5)cc(N5CCOCC5)n4n3)cc2)CC1 [Compound 31, N-(3-methyl-benzylidene)-N′-{7-morpholin-4-yl-2-[4-(1-oxo-pentan-1-yl)piperazin-1-yl-phenyl]-pyrazolo[1,5-a]pyrimidin-5-yl}-hydrazine]
18 nM | > 10000 nM | Cc1cccc(/C=N/Nc2cc(N3CCOCC3)n3nc(-c4ccc(Br)cc4)cc3n2)c1 [Compound 16, N-{2-(4-bromo-phenyl)-7-morpholin-4-yl-pyrazolo[1,5-a]-pyrimidin-5-yl}-N′-(3-methyl-benzylidene)-hydrazine]
17 nM | > 10000 nM | Cc1cccc(/C=N/Nc2cc(N3CCOCC3)n3nc(-c4cccc(Cl)c4)cc3n2)c1 [Compound 12, N-{2-(3-chloro-phenyl)-7-morpholin-4-yl-pyrazolo[1,5-a]-pyrimidin-5-yl}-N′-(3-methyl-benzylidene)-hydrazine]
14 nM | > 10000 nM | CCN(CC)c1ccc(-c2cc3nc(N/N=C/c4cccc(C)c4)cc(N4CCOCC4)n3n2)cc1 [Compound 23, N-{2-(4-diethyl-amino-phenyl)-7-morpholin-4-yl-pyrazolo-[1,5-a]pyrimidin-5-yl}-N′-(3-methyl-benzylidene)-hydrazine]
11 nM | > 10000 nM | Cc1cccc(/C=N/Nc2cc(N3CCOCC3)n3nc(-c4cccs4)cc3n2)c1 [Compound 18, N-(3-methyl-benzylidene)-N′-(7-morpholin-4-yl-2-thiophen-2-yl-pyrazolo[1,5-a]pyrimidin-5-yl)-hydrazine]
8.7 nM | > 10000 nM | Cc1cccc(/C=N/Nc2cc(N3CCOCC3)n3nc(-c4ccc(NN5CCOCC5)cc4)cc3n2)c1 [Compound 68]
8.2 nM | > 10000 nM | Cc1cccc(/C=N/Nc2cc(N3CCOCC3)n3nc(-c4ccc(N5CCSCC5)cc4)cc3n2)c1 [Compound 69, N-(3-methyl-benzylidene)-N′-{7-morpholin-4-yl-2-(4-thiomorpholin-4-yl-phenyl)-pyrazolo[1,5-a]pyrimidin-5-yl}-hydrazine]
6 nM | > 10000 nM | COCCNc1ccc(-c2cc3nc(N/N=C/c4cccc(C)c4)cc(N4CCOCC4)n3n2)cc1 [Compound 24, N-[2-{4-(2-methoxy-ethyl-amino)-phenyl}-7-morpholin-4-yl-pyrazolo[1,5-a]pyrimidin-5-yl]-N′-(3-methyl-benzylidene)-hydrazine]
5 nM | > 10000 nM | CC(=O)N1CCN(c2ccc(-c3cc4nc(N/N=C/c5cccc(C)c5)cc(N5CCOCC5)n4n3)cc2)CC1 [Compound 22, N-[2-{4-(4-acetyl-piperazin-1-yl)-phenyl}-7-morpholin-4-yl-pyrazolo[1,5-a]pyrimidin-5-yl]-N′-(3-methyl-benzylidene)-hydrazine]
4 nM | > 10000 nM | Cc1cccc(/C=N/Nc2cc(N3CCOCC3)n3nc(-c4ccc(N5CCOCC5)cc4)cc3n2)c1 [Compound 17, N-(3-methyl-benzylidene)-N′-{7-morpholin-4-yl-2-(4-morpholin-4-yl-phenyl)-pyrazolo[1,5-a]pyrimidin-5-yl}-hydrazine]
